Data set [1] relates to E. coli MG1655. Kind of data set: Phase-contrast imaging of treated cells. The data set is classed as cell-based. To be noted: Figure S5.
A further data set addresses PBP1a (Escherichia coli, UniProt P02918). The data set is classed as cell-based, Escherichia coli MG1655.
In the next data set the target is PBP1b (Escherichia coli, UniProt P02919). The class given is cell-based, Escherichia coli MG1655.
Another data set addresses PBP2 (Escherichia coli, UniProt P0AD65). The data set is classed as cell-based, Escherichia coli MG1655.
A further data set concerns the target PBP3 (Escherichia coli, UniProt P0AD68). The class given is cell-based, Escherichia coli MG1655.
The target of data set [2] is T1, PBP4 (Escherichia coli, UniProt P24228). The class given is cell-based, Escherichia coli MG1655. To be noted: for Bocillin-FL labeling of PBP4 at high inhibitor concentration: 10 mM inhibitor, all three biological replicates.
A further data set addresses PBP7 (Escherichia coli, UniProt P0AFI5). The class given is cell-based, Escherichia coli MG1655.
For a further data set, the system named is PBP5/6. The data set is classed as cell-based, Escherichia coli MG1655. To be noted: 10 mM inhibitor, all three biological replicates.
The target in data set [3] is T1, PBP4. Description: Meropenem titration against the PBPs in cell lysate. The class given is binding. To be noted: E. coli MG1655 lysate, in vitro (Figure S3).
For data set [4], the system named is PBP4. To be noted: read-out: reported IC50 values PBP4; literature range; cited from earlier work.
Data set [5] deals with E. coli MG1655. Kind of data set: Growth curve analysis of viability after permeabilization. Particulars: 200 μM in Tris for 30 min, then LB broth 37 °C, A600 over 18 h.
Setting [6] is: 10 mM inhibitor, all three biological replicates.

This is an account of results in publication PMC10040144 (ACS infectious diseases, 2022).

Some results are limits rather than exact numbers.

In the case of `O=C(O)CN(CCN(CC(=O)O)CC(=O)O)CC(=O)O` [Tris-EDTA, ethylenediaminetetraacetic acid], the “cell morphology by phase-contrast imaging” value in the data set with E. coli MG1655 [1] is listed as “little difference in the morphologies”. Besides, the “fold increases in PBP labeling in comparison to Tris alone” value with PBPs (cotreatment with 25 μM Bocillin-FL in 50 mM Tris-200 μM EDTA, 30 min) is reported as 1.2–5 fold. The “fold increases in Bocillin-FL labeling in comparison to the original DC2 method” value in the data set on PBPs (vs 7.5 μM Bocillin-FL in PBS, 10 min) is 2 to 61 fold.

Take `NC(=O)[C@@H]1CC[C@@H]2CN1C(=O)N2OS(=O)(=O)O` [avibactam]: the IC50 (usually the concentration needed to halve the response being measured) on PBP1a is above 10000 µM; on PBP1b, 310 ± 460 µM; against PBP2, below 100 µM; against PBP3, above 10000 µM; against PBP4 [2] it was above 10000 µM.

Consider `C[C@H]1[C@H](NC(=O)/C(=N\OC(C)(C)C(=O)O)c2csc(N)n2)C(=O)N1S(=O)(=O)O` [aztreonam], for which the IC50 against PBP1a is 970 ± 940 µM; against PBP1b, 1.6 ± 0.9 µM; on PBP2 it was above 10000 µM; against PBP4 [2], above 10000 µM. The “Bocillin-FL labeling of PBP2 at high inhibitor concentration” value on PBP2 (setting [6]) is reported as “increased Bocillin-FL labeling”. Moreover, the “Bocillin-FL labeling of PBP4 at high inhibitor concentration” value at PBP4 [2] is reported as “increased Bocillin-FL labeling”. At PBP7 (setting [6]), the “Bocillin-FL labeling of PBP7 at high inhibitor concentration” value is reported as “increased Bocillin-FL labeling”.

For the molecule `N[C@@H](C(=O)N[C@@H]1C(=O)N2C(C(=O)O)=C(Cl)CS[C@H]12)c1ccccc1` [cefaclor], the IC50 against PBP1a was above 10000 µM; on PBP1b, above 10000 µM; against PBP2, 360 ± 210 µM; at PBP3 it was 15 ± 14 µM; against PBP4 [2] it was above 10000 µM; against PBP7, 86 ± 66 µM. The “Bocillin-FL labeling of PBP5/6 at high inhibitor concentration” value in the data set on PBP5/6 was “labeling was increased”.

`CO/N=C(\C(=O)N[C@@H]1C(=O)N2C(C(=O)[O-])=C(C[N+]3(C)CCCC3)CS[C@H]12)c1csc(N)n1` [cefepime]: the IC50 at PBP1a was 5.5 ± 2.6 µM; against PBP1b, 2.6 ± 2.4 µM; against PBP2, 0.2 ± 0.1 µM; against PBP3, below 0.0001 µM; against PBP4 [2], above 10000 µM. Moreover, at PBP4 [2], the “Bocillin-FL labeling of PBP4 at high inhibitor concentration” value is “increased Bocillin-FL labeling”. Further, the “Bocillin-FL labeling of PBP5/6 at high inhibitor concentration” value in the data set with PBP5/6 is “increased Bocillin-FL labeling”.

Turning to `CO/N=C(\C(=O)N[C@@H]1C(=O)N2C(C(=O)O)=C(CSc3nc(=O)c(=O)[nH]n3C)CS[C@H]12)c1csc(N)n1` [ceftriaxone], the IC50 at PBP1a was determined as 4.9 ± 2.2 µM; against PBP1b, 0.2 ± 0.2 µM; at PBP2, 1.5 ± 0.9 µM; against PBP4 [2], 3 ± 8 µM; against PBP7 it was 9.5 ± 9.8 µM.

`CO/N=C(\C(=O)N[C@@H]1C(=O)N2C(C(=O)O)=C(COC(N)=O)CS[C@H]12)c1ccco1` [cefuroxime]: the IC50 was found to be 73 ± 42 µM at PBP1a; 1.6 ± 1.9 µM on PBP1b; 91 ± 65 µM at PBP2; 0.02 ± 0.01 µM on PBP3; 24 ± 22 µM against PBP4 [2]; 25 ± 31 µM at PBP7.

On to `CC1=C(C(=O)O)N2C(=O)[C@@H](NC(=O)[C@H](N)c3ccccc3)[C@H]2SC1` [cephalexin], for which the IC50 at PBP1a is above 10000 µM; against PBP1b, above 10000 µM; against PBP4 [2] it was 68 ± 79 µM; on PBP7, 200 ± 250 µM.

On to `C[C@@H](O)[C@H]1C(=O)N2C(C(=O)O)=C([C@H]3CCCO3)S[C@H]12` [faropenem], for which the IC50 is 6.4 ± 3.6 µM against PBP1a; 0.4 ± 0.2 µM against PBP1b; 0.04 ± 0.04 µM on PBP2; 2 ± 1.6 µM against PBP4 [2]; 1.2 ± 1.8 µM against PBP7.

In the case of `C[C@@H](O)[C@H]1C(=O)N2C(C(=O)O)=C(S[C@@H]3CN[C@H](C(=O)N(C)C)C3)[C@H](C)[C@H]12` [meropenem], the IC50 on PBP1a was above 10000 µM; against PBP1b, 110 ± 86 µM; against PBP2 it was 0.01 µM; against PBP4 [2], above 10000 µM; in the data set on PBP4 [4] it was 0.0001 to 0.01 µM. Further, the “PBP4 inhibition in lysate” value on PBP4 [3] is reported as “no PBP4 inhibition”.

Consider `COc1cccc(OC)c1C(=O)N[C@@H]1C(=O)N2[C@@H]1SC(C)(C)[C@@H]2C(=O)O` [methicillin], for which the IC50 against PBP1a is above 10000 µM; against PBP4 [2], 87 ± 51 µM; at PBP7 it was 58 ± 70 µM.

With `CC1(C)S[C@@H]2[C@H](NC(=O)Cc3ccccc3)C(=O)N2[C@H]1C(=O)O` [penicillin G], the IC50 against PBP1a came to 170 ± 93 µM; against PBP1b, 1.5 ± 0.7 µM; against PBP2 it was 65 ± 36 µM; at PBP3, 15 ± 9 µM.

For the molecule `CCN1CCN(C(=O)N[C@@H](C(=O)N[C@@H]2C(=O)N3[C@@H]2SC(C)(C)[C@@H]3C(=O)O)c2ccccc2)C(=O)C1=O` [piperacillin], the IC50 against PBP1a was determined as 17 ± 15 µM; at PBP1b, 12 ± 7.4 µM; against PBP2, 2.8 ± 2.8 µM; on PBP4 [2], 25 ± 24 µM; against PBP7, 2.3 ± 2.5 µM.

For the molecule colistin, the lag in growth in the data set on E. coli MG1655 [5] is ~ 10 h.
